Assay results reported in US9382254B2, “Compounds and pharmaceutical compositions thereof for the treatment of cystic fibrosis” (Galapagos NV, priority 2013, dated 2016).
pEC50: −log10 of the molar value.

Tests used:
Type in all cases: cell-based
CFTR ΔF508 mutant [1] = biological target: T1, CFTR ΔF508 mutant (Homo sapiens, UniProt P13569, DEL508-508); test: YFP-halide influx assay for the CFTR-ΔF508 mutation, gluconate buffer; conditions: CFBE41o- cells, forskolin 10.67 μM
T1 construct: expressed in transfected cells; host or cells: CFBE41o- (adenoviral transduction)
Description: The YFP halide influx assay measures the functionality of the cystic fibrosis Transmembrane Conductance regulator (CFTR) channels in the cystic fibrosis bronchial epithelium cell line CFBE41o-. The assay is used to evaluate the capacity of compounds to increase the open probability of existing CFTR channels in the membrane. It makes use of the observation that the yellow fluorescent protein (YFP) variant YFP H148Q, I152L has its fluorescence substantially quenched by halide ions like Cl^− and I^−. (Galietta, Haggie, & Verkman, 2001) (Nagai, et al., 2002)
For this purpose, CFBE41o-cells are seeded in 96 well plates (6000 CFBE cells/well). One day after seeding, the CFBE cells are transduced with adenoviral vectors that direct the expression of the CFTR ΔF508 mutant and of the YFP reporter. Cells are incubated at 27° C., 5% CO2 for 24 hours so as to allow for the proper folding and migration to the membrane of the CFTR channel or treated with a CFTR modulator during 24 hours at 37° C.
The I^−-induced quenching of fluorescence is recorded immediately after injection of I^− for 7 seconds. The capacity of a compound to increase the channel opening is directly correlated with the decrease in fluorescence, and is expressed as (1-(fluorescence after 7 seconds (F)/fluorescence before injection (F0))) and an EC50 can be derived from a (1-F/F0) vs compound concentration plot.

CFTR G551D mutant = biological target: T2, CFTR G551D mutant (Homo sapiens, UniProt P13569, G551D); test: YFP-halide influx assay for the CFTR-G551D mutation; conditions: HEK293 cells, forskolin 10.67 μM
T2 construct: expressed in transfected cells; host or cells: HEK293 (reverse transfection with plasmid)
Method in brief: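 HEK293 cells reverse-transfected with CFTR G551D and YFP H148Q/I152L/F47L halide sensor, expressed 24 h at 37 °C. Iodide-induced fluorescence quench recorded 7 s after I− injection; response = 1−F/F0, with EC50 from plot against compound concentration.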

CFTR ΔF508 mutant [2] = biological target: T1, CFTR ΔF508 mutant; test: YFP-halide influx assay for the CFTR-ΔF508 mutation (384 well, FDSS/μCell); conditions: CFBE41o- cells, CFTR-ΔF508, 1×D-PBS, fluorescence after 36 seconds
Method in brief: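 Potentiator read-out as 1−F/F0, F taken 36 s after iodide addition, EC50 fitted against compound concentration. Cells: CFBE41o- expressing ΔF508 CFTR plus halide-sensitive YFP via adenovirus, rescued by 27 °C for 24 h or 24 h modulator at 37 °C.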

T1 sequence (P13569 with tags, fused parts or gaps DEL508-508): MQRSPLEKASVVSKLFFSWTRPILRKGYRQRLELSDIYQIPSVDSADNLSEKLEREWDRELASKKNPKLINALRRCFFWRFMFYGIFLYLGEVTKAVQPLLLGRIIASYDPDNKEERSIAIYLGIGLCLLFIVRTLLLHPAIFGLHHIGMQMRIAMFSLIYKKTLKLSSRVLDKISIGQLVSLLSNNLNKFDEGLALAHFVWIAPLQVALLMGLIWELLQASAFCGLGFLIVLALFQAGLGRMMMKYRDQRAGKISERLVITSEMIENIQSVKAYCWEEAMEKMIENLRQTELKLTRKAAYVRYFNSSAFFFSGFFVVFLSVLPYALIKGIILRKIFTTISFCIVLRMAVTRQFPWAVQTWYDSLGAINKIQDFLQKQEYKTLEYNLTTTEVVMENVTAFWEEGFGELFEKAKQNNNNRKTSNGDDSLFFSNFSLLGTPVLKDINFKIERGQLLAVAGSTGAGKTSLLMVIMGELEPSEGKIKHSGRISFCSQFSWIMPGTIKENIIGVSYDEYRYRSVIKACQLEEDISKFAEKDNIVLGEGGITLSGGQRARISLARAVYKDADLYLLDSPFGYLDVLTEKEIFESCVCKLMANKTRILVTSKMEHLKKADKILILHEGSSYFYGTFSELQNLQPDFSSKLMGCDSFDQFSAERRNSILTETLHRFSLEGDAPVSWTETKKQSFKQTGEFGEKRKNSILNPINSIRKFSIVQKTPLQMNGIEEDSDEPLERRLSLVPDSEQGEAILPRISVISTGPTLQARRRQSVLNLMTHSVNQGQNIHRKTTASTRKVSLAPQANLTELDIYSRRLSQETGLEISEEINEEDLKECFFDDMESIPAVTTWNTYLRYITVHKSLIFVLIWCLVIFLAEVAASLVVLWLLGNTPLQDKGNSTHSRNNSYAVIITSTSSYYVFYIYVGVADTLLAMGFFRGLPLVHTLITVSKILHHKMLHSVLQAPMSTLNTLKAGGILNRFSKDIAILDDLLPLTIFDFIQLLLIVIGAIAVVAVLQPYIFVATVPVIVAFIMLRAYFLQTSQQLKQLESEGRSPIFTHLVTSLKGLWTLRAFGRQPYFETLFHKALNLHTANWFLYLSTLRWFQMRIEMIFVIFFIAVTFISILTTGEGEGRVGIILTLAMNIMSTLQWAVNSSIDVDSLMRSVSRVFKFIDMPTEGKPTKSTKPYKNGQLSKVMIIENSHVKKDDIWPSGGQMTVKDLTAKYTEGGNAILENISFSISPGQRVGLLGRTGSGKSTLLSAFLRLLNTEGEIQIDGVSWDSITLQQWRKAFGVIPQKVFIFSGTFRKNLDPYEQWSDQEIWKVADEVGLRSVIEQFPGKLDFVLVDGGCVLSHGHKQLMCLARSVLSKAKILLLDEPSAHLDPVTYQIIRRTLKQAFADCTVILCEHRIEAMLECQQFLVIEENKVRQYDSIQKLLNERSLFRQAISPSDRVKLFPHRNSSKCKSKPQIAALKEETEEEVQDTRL
T2 sequence (P13569 whole entry G551D): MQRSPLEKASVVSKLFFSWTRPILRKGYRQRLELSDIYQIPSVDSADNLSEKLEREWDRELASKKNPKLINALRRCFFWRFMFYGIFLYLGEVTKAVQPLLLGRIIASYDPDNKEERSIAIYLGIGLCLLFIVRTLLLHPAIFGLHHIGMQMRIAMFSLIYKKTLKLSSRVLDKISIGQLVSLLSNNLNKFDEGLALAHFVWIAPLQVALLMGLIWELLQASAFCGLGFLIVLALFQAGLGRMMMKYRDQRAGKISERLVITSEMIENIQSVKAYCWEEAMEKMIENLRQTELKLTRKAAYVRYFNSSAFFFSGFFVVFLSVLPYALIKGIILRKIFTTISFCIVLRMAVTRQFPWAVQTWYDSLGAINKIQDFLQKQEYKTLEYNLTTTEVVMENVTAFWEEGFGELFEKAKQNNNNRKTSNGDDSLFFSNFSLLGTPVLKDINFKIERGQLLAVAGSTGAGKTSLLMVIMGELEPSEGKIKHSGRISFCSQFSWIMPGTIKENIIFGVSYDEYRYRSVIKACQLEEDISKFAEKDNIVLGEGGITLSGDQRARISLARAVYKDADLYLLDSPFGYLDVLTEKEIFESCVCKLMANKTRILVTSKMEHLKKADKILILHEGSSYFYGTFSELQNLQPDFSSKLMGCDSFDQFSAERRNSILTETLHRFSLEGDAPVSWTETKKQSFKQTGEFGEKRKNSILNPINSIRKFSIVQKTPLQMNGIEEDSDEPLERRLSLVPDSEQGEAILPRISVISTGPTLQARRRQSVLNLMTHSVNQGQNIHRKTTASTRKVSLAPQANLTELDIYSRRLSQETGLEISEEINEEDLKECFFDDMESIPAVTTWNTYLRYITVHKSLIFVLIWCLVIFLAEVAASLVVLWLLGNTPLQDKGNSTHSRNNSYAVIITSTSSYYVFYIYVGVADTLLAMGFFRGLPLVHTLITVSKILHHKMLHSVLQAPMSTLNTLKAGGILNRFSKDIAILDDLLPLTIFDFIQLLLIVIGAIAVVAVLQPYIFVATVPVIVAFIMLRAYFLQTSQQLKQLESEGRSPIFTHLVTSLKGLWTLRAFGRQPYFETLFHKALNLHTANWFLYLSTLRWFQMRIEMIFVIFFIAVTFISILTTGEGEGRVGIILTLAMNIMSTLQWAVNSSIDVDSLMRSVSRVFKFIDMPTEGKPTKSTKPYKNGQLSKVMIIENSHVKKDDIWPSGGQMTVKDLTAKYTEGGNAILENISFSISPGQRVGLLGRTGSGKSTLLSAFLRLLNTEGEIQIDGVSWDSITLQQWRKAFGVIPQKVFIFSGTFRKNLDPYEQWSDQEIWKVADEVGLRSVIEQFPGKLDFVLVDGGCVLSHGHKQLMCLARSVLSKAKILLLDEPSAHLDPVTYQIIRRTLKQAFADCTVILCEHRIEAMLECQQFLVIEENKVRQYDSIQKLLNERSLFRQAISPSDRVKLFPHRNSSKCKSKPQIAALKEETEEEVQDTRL

| SMILES | pEC50 (CFTR ΔF508 mutant [1]) | pEC50 (CFTR G551D mutant) | pEC50 (CFTR ΔF508 mutant [2]) |
| --- | --- | --- | --- |
| NC(=O)c1cc(S(=O)(=O)N2CCCCC2)sc1NC(=O)c1cc2c(F)cccc2s1 [Compound 2, N-(3-carbamoyl-5-(piperidin-1-ylsulfonyl)thiophen-2-yl)-4-fluorobenzo[b] thiophene-2-carboxamide] | 6.32 | – | – |
| Cc1ccc(C(=O)Nc2sc(S(=O)(=O)N(C)Cc3ccccc3)cc2C(N)=O)s1 [Compound 6, N-(5-(N-benzyl-N-methylsulfamoyl)-3-carbamoylthiophen-2-yl)-5-methylthiophene-2-carboxamide] | 6.49 | – | – |
| Cc1ccc(C(=O)Nc2sc(S(=O)(=O)N(C)c3ccccc3)cc2C(N)=O)s1 [Compound 7, N-(3-carbamoyl-5-(N-methyl-N-phenylsulfamoyl)thiophen-2-yl)-5-methylthiophen-2-carboxamide] | 5.97 | – | – |
| Cc1ccc(C(=O)Nc2sc(S(=O)(=O)N3Cc4ccccc4C3)cc2C(N)=O)s1 [Compound 8, N-(3-carbamoyl-5-(isoindolin-2-ylsulfonyl)thiophen-2-yl)-5-methylthiphen-2-carboxamide] | 6.19 | – | – |
| NC(=O)c1cc(S(=O)(=O)N2CCCCC2)sc1NC(=O)C1CCCC1 [Compound 13, 2-(cyclopentanecarboxamido)-5-(piperidin-1-ylsulfonyl)thiophene-3-carboxamide] | 6.40 | – | – |
| NC(=O)c1cc(S(=O)(=O)N2CCCCC2)sc1NC(=O)c1cccc(F)c1 [Compound 14, 2-(3-fluorobenzamido)-5-(piperidin-1-ylsulfonyl)thiophene-3-carboxamide] | 6.45 | – | – |
| NC(=O)c1cc(S(=O)(=O)N2CCCCC2)sc1NC(=O)c1ccccc1Cl [Compound 17, 2-(2-chlorobenzamido)-5-(piperidin-1-ylsulfonyl)thiophene-3-carboxamide] | 6.58 | – | – |
| NC(=O)c1cc(S(=O)(=O)N2CCCCC2)sc1NC(=O)c1ccccc1F [Compound 19, 2-(2-fluorobenzamido)-5-(piperidin-1-ylsulfonyl)thiophene-3-carboxamide] | 6.93 | – | – |
| NC(=O)c1cc(S(=O)(=O)N2CCCCC2)sc1NC(=O)c1ccc(Cl)cc1 [Compound 20, 2-(4-chlorobenzamido)-5-(piperidin-1-ylsulfonyl)thiophene-3-carboxamide] | 6.41 | – | – |
| CC(C)(C)c1ccc(C(=O)Nc2sc(S(=O)(=O)N3CCCCC3)cc2C(N)=O)s1 [Compound 23, 5-tert-butyl-N-(3-carbamoyl-5-(piperidin-1-ylsulfonyl)thiophen-2-yl) thiophene-2-carboxamide] | 6.19 | – | – |
| N#Cc1ccccc1C(=O)Nc1sc(S(=O)(=O)N2CCCCC2)cc1C(N)=O [Compound 25, 2-(2-cyanobenzamido)-5-(piperidin-1-ylsulfonyl)thiophene-3-carboxamide] | 6.02 | – | – |
| CC(C)(C)C(=O)Nc1sc(S(=O)(=O)N2CCCCC2)cc1C(N)=O [Compound 29, 5-(piperidin-1-ylsulfonyl)-2-pivalamidothiophene-3-carboxamide] | 6.57 | – | – |
| Cc1nnc(C(=O)Nc2sc(S(=O)(=O)N3CCCCC3)cc2C(N)=O)o1 [Compound 33, N-(3-carbamoyl-5-(piperidin-1-ylsulfonyl)thiophen-2-yl)-5-methyl-1,3,4-oxadiazole-2-carboxamide] | 5.01 | – | – |
| NC(=O)c1cc(S(=O)(=O)N2CCCCC2)sc1NC(=O)c1c[nH]cn1 [Compound 35, N-(3-carbamoyl-5-(piperidin-1-ylsulfonyl)thiophen-2-yl)-1H-imidazole-4-carboxamide] | 5.48 | – | – |
| NC(=O)c1cc(S(=O)(=O)c2ccc(OC(F)(F)F)cc2)sc1NC(=O)C1CCOC1 (stereo not drawn) [Compound 443, N-[3-carbamoyl-5-[4-(trifluoromethoxy)phenyl]sulfonyl-2-thienyl] tetrahydrofuran-3-carboxamide] | – | 5.48 | 6.97 |

Continued, values first:

| pEC50 (CFTR ΔF508 mutant [1]) | pEC50 (CFTR G551D mutant) | pEC50 (CFTR ΔF508 mutant [2]) | SMILES |
| --- | --- | --- | --- |
| 6.87 | – | – | Cc1ccc(C(=O)Nc2sc(S(=O)(=O)N3CCCCC3)cc2C(N)=O)s1 [Compound 1, N-(3-carbamoyl-5-(piperidin-1-ylsulfonyl)thiophen-2-yl)-5-methylthiophene-2-carboxamidc] |
| 6.03 | – | – | Cc1ccc(C(=O)Nc2sc(S(=O)(=O)N3CCN(C)CC3)cc2C(N)=O)s1 [Compound 5, N-(3-carbamoyl-5-(4-methylpiperazin-1-ylsulfonyl)thiophen-2-yl)-5-methylthiophene-2-carboxamide] |
| 6.22 | – | – | NC(=O)c1cc(S(=O)(=O)N2CCCCC2)sc1NC(=O)c1cc2c(s1)CCCC2 [Compound 9, N-(3-carbamoyl-5-(piperidin-1-ylsulfonyl)thiophen-2-yl)-4,5,6,7-tetrahydrobenzo[b] thiophene-2-carboxamide] |
| 6.20 | – | – | NC(=O)c1cc(S(=O)(=O)N2CCCCC2)sc1NC(=O)c1cc2ccccc2s1 [Compound 10, N-(3-carbamoyl-5-(piperidin-1-ylsulfonyl)thiophen-2-yl)benzo[b] thiophene-2-carboxamide] |
| 6.25 | – | – | N#Cc1cccc(C(=O)Nc2sc(S(=O)(=O)N3CCCCC3)cc2C(N)=O)c1 [Compound 11, 2-(3-cyanobenzamido)-5-(piperidin-1-ylsulfonyl) thiophene-3-carboxamide] |
| 6.05 | – | – | NC(=O)c1cc(S(=O)(=O)N2CCCCC2)sc1NC(=O)c1ccc2ncsc2c1 [Compound 12, N-(3-carbamoyl-5-(piperidin-1-ylsulfonyl)thiophen-2-yl)benzo[d] thiazole-6-carboxamide] |
| 6.77 | – | – | Cc1ccc(C(=O)Nc2sc(S(=O)(=O)N(C)C)cc2C(N)=O)s1 [Compound 15, N-(3-carbamoyl-5-(N,N-dimethylsulfamoyl)thiophen-2-yl)-5-methylthiophene-2-carboxamide] |
| 6.33 | – | – | COc1cccc(C(=O)Nc2sc(S(=O)(=O)N3CCCCC3)cc2C(N)=O)c1 [Compound 18, 2-(3-methoxybenzamido)-5-(piperidin-1-ylsulfonyl)thiophene-3-carboxamide] |
| 6.32 | – | – | COc1ccc(C(=O)Nc2sc(S(=O)(=O)N3CCCCC3)cc2C(N)=O)cc1 [Compound 21, 2-(4-methoxybenzamido)-5-(piperidin-1-ylsulfonyl)thiophene-3-carboxamide] |
| 6.50 | – | – | N#Cc1ccc(C(=O)Nc2sc(S(=O)(=O)N3CCCCC3)cc2C(N)=O)cc1 [Compound 22, 2-(4-cyanobenzamido)-5-(piperidin-1-ylsulfonyl)thiophene-3-carboxamide] |
| 6.11 | – | – | COc1ccccc1C(=O)Nc1sc(S(=O)(=O)N2CCCCC2)cc1C(N)=O [Compound 24, 2-(2-methoxybenzamido)-5-(piperidin-1-ylsulfonyl)thiophene-3-carboxamide] |
| 6.54 | – | – | NC(=O)c1cc(S(=O)(=O)N2CCCCC2)sc1NC(=O)c1ccc(F)cc1 [Compound 26, 2-(4-fluorobenzamido)-5-(piperidin-1-ylsulfonyl)thiophene-3-carboxamide] |
| 6.54 | – | – | CC(C)(C)c1ccc(C(=O)Nc2sc(S(=O)(=O)N3CCCCC3)cc2C(N)=O)cc1 [Compound 27, 2-(4-tert-butylbenzamido)-5-(piperidin-1-ylsulfonyl)thiophene-3-carboxamide] |
| 6.20 | – | – | CCCC(=O)Nc1sc(S(=O)(=O)N2CCCCC2)cc1C(N)=O [Compound 28, 2-butyramido-5-(piperidin-1-ylsulfonyl)thiophene-3-carboxamide] |
| 6.04 | – | – | Cn1ccc(C(=O)Nc2sc(S(=O)(=O)N3CCCCC3)cc2C(N)=O)n1 [Compound 30, N-(3-carbamoyl-5-(piperidin-1-ylsulfonyl)thiophen-2-yl)-1-methyl-1H-pyrazole-3-carboxamide] |
| 6.74 | – | – | CC1(C(=O)Nc2sc(S(=O)(=O)N3CCCCC3)cc2C(N)=O)CC1 [Compound 31, 2-(1-methylcyclopropanecarboxamido)-5-(piperidin-1-ylsulfonyl) thiophene-3-carboxamide] |
| 5.82 | – | – | NC(=O)c1cc(S(=O)(=O)N2CCCCC2)sc1NC(=O)Cc1ccc(F)cc1 [Compound 32, 2-(2-(4-fluorophenyl)acetamido)-5-(piperidin-1-ylsulfonyl)thiophene-3-carboxamide] |
| 6.54 | – | – | NC(=O)c1cc(S(=O)(=O)N2CCCCC2)sc1NC(=O)c1cnccn1 [Compound 34, N-(3-carbamoyl-5-(piperidin-1-ylsulfonyl)thiophen-2-yl)pyrazine-2-carboxamide] |
| – | 5.48 | 7.04 | NC(=O)c1cc(S(=O)(=O)c2ccc(OC(F)(F)F)cc2)sc1NC(=O)C1CCCO1 (stereo not drawn) [Compound 442, N-[3-carbamoyl-5-[4-(trifluoromethoxy)phenyl]sulfonyl-2-thienyl] tetrahydrofuran-2-carboxamide] |
